Source: US4567198A, “Ethanethioates and mercaptoamides and use thereof as analgesic and enkephalinase inhibitory compounds” (Roussel Uclaf, priority 1983, dated 1986)

Target: T1, Enkephalinase (Rattus norvegicus, UniProt P07861)
T1 construct: from tissue; host or cells: rat striatum, membrane fraction (20,000 g pellet)
T1 sequence (P07861 1-750): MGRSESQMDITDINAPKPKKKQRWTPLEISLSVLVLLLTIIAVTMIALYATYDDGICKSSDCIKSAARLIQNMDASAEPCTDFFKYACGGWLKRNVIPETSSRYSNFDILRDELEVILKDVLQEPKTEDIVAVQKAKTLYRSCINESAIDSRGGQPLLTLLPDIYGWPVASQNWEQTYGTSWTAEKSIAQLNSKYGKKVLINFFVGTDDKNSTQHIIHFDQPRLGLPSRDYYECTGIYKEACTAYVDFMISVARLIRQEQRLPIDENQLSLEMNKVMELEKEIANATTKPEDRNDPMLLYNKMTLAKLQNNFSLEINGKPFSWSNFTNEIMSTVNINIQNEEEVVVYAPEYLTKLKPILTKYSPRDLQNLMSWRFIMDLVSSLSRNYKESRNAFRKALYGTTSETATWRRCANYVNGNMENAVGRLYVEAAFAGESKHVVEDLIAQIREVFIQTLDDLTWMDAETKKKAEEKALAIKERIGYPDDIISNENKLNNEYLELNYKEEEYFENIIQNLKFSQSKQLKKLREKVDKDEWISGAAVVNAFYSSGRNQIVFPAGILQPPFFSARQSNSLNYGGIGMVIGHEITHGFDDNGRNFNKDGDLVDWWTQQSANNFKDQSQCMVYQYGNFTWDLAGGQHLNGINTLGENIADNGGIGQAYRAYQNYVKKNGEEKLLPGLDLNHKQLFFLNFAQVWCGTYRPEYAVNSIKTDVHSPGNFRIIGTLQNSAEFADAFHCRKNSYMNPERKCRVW
Assay: Inhibition of enkephalinase in rat striatum membrane fraction (hydrolysis of tritiated leucine-enkephaline)
Type: biochemical
Conditions: striatum membrane fraction of rats; 20 nanomoles tritiated leucine-enkephaline, 1 mM puromycin, 25° C., 15 minutes, Tris pH 7.4; read-out: Enkephalinase inhibition CI50
Method: Enkephalinase activity was determined in a striatum membrane fraction of rats. The straitum was placed in ice and was homogenized in buffered 0.05M Tris with a pH of 7.4 (20 times the volume) and after a first centrifugation at 1000 g, the particular fraction obtained was subjected to two centrifugations for 10 minutes at 20,000 g. The culot was then suspended in buffered Tris and kept at 4° C. The amount of proteins was determined by the Comassie blue method.
After preincubation at 25° C. for 15 minutes, an aliquot of proteins was incubated at 25° C. for 15 minutes in the presence of 20 nanomoles of tritiated leucine-enkephaline (against the first amino acid) previously purified, of 1 mM of puromycin and the test product in buffered Tris. The hydrolysis reaction was stopped by addition of 0.2N hydrochloric acid and the icubate was subjected to a deproteinization by heating at 95° C. for 15 minutes. Under these conditions, the kinetic reaction was linear. The tritiated metabolites obtained by hydrolysis were separated from enkephaline by chromatography over a column of porapak Q and elution with buffered Tris whereby enkephaline was retained in the column and was released in the following ethanolic phase. The activity of the different products was expressed in 50% inhibiting concentration called CI50 in Table I.

Row | IC50 | Compound
1 | 130 µM | CC(=O)SCC(=O)Nc1nccs1 [Ethanethioate of S-[2-(2-thiazolylamino)-2-oxo-ethyl]]
2 | 6 µM | CC(=O)SCC(=O)Nc1ccc(Cl)cc1 [Ethanethioate of S-[2-(4-chlorophenylamino)-2-oxo-ethyl]]
3 | 30 µM | O=C(CS)Nc1nccs1 [N--(2-thiazolyl)-2-mercapto-acetamide, N-(2-thiazolyl)-2-mercapto-acetamide]
4 | 5 µM | O=C(CS)Nc1ccc(Cl)cc1 [N--(4-chlorophenyl)-2-mercapto-acetamide, N-(4-chlorophenyl)-2-mercapto-acetamide]
5 | 3 µM | O=C(CS)Nc1ccccc1 [N--phenyl-2-mercapto-acetamide, N-phenyl-2-mercapto-acetamide]
6 | 40 µM | O=C(CCS)Nc1ccccc1 [N--phenyl-3-mercapto-propanamide, N-phenyl-3-mercapto-propanamide]
